According to US20260324639A1, “MICROBIOCIDAL PYRAZOLE DERIVATIVES” (SYNGENTA CROP PROTECTION AG, priority 2022, published 2026):

Experiments:
Monographella nivalis = Monographella nivalis (Microdochium nivale)/liquid culture (foot rot cereals); format: cell-based; settings: liquid culture, PDB, 24° C., growth inhibition photometric 4-5 days after application, read-out: control of Monographella nivalis compared to untreated control
Procedure: (§1) Conidia of the fungus from cryogenic storage are directly mixed into nutrient broth (PDB potato dextrose broth). After placing a (DMSO) solution of test compound into a microtiter plate (96-well format), the nutrient broth containing the fungal spores is added. The test plates are incubated at 24° C. and the inhibition of growth is determined photometrically 4-5 days after application.

Alternaria solani = assay: Alternaria solani/tomato/leaf disc (early blight); format: in vivo; settings: 200 ppm; tomato leaf disks cv. Baby; inoculated 2 days after application; assessed 5-7 days after application
Procedure: Tomato leaf disks cv. Baby are placed on agar in multiwell plates (24-well format) and sprayed with the formulated test compound diluted in water. The leaf disks are inoculated with a spore suspension of the fungus 2 days after application. The inoculated leaf disks are incubated at 23° C./21° C. (day/night) and 80% rh under a light regime of 12/12 h (light/dark) in a climate cabinet and the activity of a compound is assessed as percent disease control compared to untreated when an appropriate level of disease damage appears on untreated check disk leaf disks (5-7 days after application).

[1] = system: Mycosphaerella graminicola; assay: Mycosphaerella graminicola (Septoria tritici)/liquid culture (Septoria blotch); format: cell-based; settings: Zymoseptoria tritici, liquid culture, PDB, 24° C., growth inhibition photometric 4-5 days after application, read-out: control of Mycosphaerella graminicola compared to untreated control
Procedure: as §1

Glomerella lagenarium = Glomerella lagenarium (Colletotrichum lagenarium)/liquid culture (anthracnose); format: cell-based; settings: Colletotrichum orbiculare, liquid culture, PDB, 24° C., growth inhibition photometric 3-4 days after application, read-out: control of Glomerella lagenarium compared to untreated control
Procedure: as §1, with “measured” for “determined”, “3-4” for “4-5”

Pyrenophora teres = assay: Pyrenophora teres/barley/leaf disc preventative (net blotch); format: in vivo; settings: 200 ppm, barley leaf segments cv. Hasso, inoculated 2 days after application, assessed 5-7 days after application
Procedure: Barley leaf segments cv. Hasso are placed on agar in a multiwell plate (24-well format) and sprayed with the formulated test compound diluted in water. The leaf segments are inoculated with a spore suspension of the fungus 2 days after application. The inoculated leaf segments are incubated at 20° C. and 65% rh under a light regime of 12 h light/12 h darkness in a climate cabinet and the activity of a compound is assessed as disease control compared to untreated when an appropriate level of disease damage appears in untreated check leaf segments (5-7 days after application).

Botryotinia fuckeliana = Botryotinia fuckeliana (Botrytis cinerea)/liquid culture (gray mould); format: cell-based; settings: liquid culture, Vogels broth, 24° C., growth inhibition photometric 3-4 days after application, read-out: control of Botryotinia fuckeliana compared to untreated control
Procedure: as §1, with “(Vogels” for “(PDB potato dextrose”, “3-4” for “4-5”

Mycosphaerella arachidis = Mycosphaerella arachidis (Cercospora arachidicola)/liquid culture (early leaf spot); format: cell-based; settings: liquid culture, PDB, 24° C., growth inhibition photometric 4-5 days after application, read-out: control of Mycosphaerella arachidis compared to untreated control
Procedure: as §1

[2] = system: Blumeria graminis f. sp. tritici; assay: Blumeria graminis f. sp. tritici/wheat/leaf disc preventative (powdery mildew on wheat); format: in vivo; settings: 200 ppm, wheat leaf segments cv. Kanzler, inoculated 1 day after application, assessed 6-8 days after application
Procedure: Wheat leaf segments cv. Kanzler are placed on agar in a multiwell plate (24-well format) and sprayed with the formulated test compound diluted in water. The leaf disks are inoculated by shaking powdery mildew infected plants above the test plates 1 day after application. The inoculated leaf disks are incubated at 20° C. and 60% rh under a light regime of 24 h darkness followed by 12 h light/12 h darkness in a climate chamber and the activity of a compound is assessed as percent disease control compared to untreated when an appropriate level of disease damage appears on untreated check leaf segments (6-8 days after application).

Phaeosphaeria nodorum = Phaeosphaeria nodorum (Septoria nodorum)/wheat/leaf disc preventative (glume blotch); format: in vivo; settings: 200 ppm, wheat leaf segments cv. Kanzler, inoculated 2 days after application, assessed 5-7 days after application
Procedure: Wheat leaf segments cv. Kanzler are placed on agar in a multiwell plate (24-well format) and sprayed with the formulated test compound diluted in water. The leaf disks are inoculated with a spore suspension of the fungus 2 days after application. The inoculated test leaf disks are incubated at 20° C. and 75% rh under a light regime of 12 h light/12 h darkness in a climate cabinet and the activity of a compound is assessed as percent disease control compared to untreated when an appropriate level of disease damage appears in untreated check leaf disks (5-7 days after application).

Fusarium culmorum = assay: microbe, parasite or virus in culture; format: cell-based; settings: read-out: control of Fusarium culmorum compared to untreated control
Procedure: as §1, with “3-4” for “4-5”

[3] = system: Puccinia recondita f. sp. tritici; assay: Puccinia recondita f. sp. tritici/wheat/leaf disc preventative (brown rust); format: in vivo; settings: 200 ppm, inoculated 1 day after application, wheat leaf segments cv. Kanzler, assessed 7-9 days after application
Procedure: Wheat leaf segments cv. Kanzler are placed on agar in multiwell plates (24-well format) and sprayed with the formulated test compound diluted in water. The leaf disks are inoculated with a spore suspension of the fungus 1 day after application. The inoculated leaf segments are incubated at 19° C. and 75% rh under a light regime of 12 h light/12 h darkness in a climate cabinet and the activity of a compound is assessed as percent disease control compared to untreated when an appropriate level of disease damage appears in untreated check leaf segments (7-9 days after application).

Sclerotinia sclerotiorum = assay: Sclerotinia sclerotiorum/liquid culture (cottony rot); format: cell-based; settings: liquid culture (mycelia fragments), PDB, 24° C., growth inhibition photometric 3-4 days after application, read-out: control of Sclerotinia sclerotiorum compared to untreated control
Procedure: as §1, with “Mycelia fragments of a newly grown liquid culture” for “Conidia”, “fungus” for “fungus from cryogenic storage”, “format)” for “format),”, “material” for “spores”, “3-4” for “4-5”

In the case of C[C@H]1c2ccccc2[C@@H](c2cnn(C)c2Cl)CN1C(=O)c1cn(-c2ncc(F)cc2F)nn1 (racemic) [Compound P-53, [1-(3,5-difluoro-2-pyridyl)triazol-4-yl]-[rac-(1S,4S)-4-(5-chloro-1-methyl-pyrazol-4-yl)-1-methyl-3,4-dihydro-1H-isoquinolin-2-yl]methanone], the inhibition of growth at 20 ppm (Monographella nivalis) is reported as at least 80%, the “control of Alternaria solani compared to untreated control” value (Alternaria solani) is reported as “at least 80%” and the inhibition of growth at 20 ppm [1] is reported as at least 80%. For the same compound, the inhibition of growth at 20 ppm (Glomerella lagenarium) was at least 80%, the “control of Pyrenophora teres compared to untreated control” value (Pyrenophora teres) was “at least 80%” and the inhibition of growth at 20 ppm (Botryotinia fuckeliana) was at least 80%. For the same compound, the inhibition of growth at 20 ppm (Mycosphaerella arachidis) was at least 80%, the “control of Blumeria graminis f. sp. tritici compared to untreated control” value [2] was “at least 80%” and the “control of Phaeosphaeria nodorum compared to untreated control” value (Phaeosphaeria nodorum) was “at least 80%”. It also gave an inhibition of growth at 20 ppm (Fusarium culmorum) of at least 80%.

For COc1ccc2c(c1)[C@@H](c1cnn(C)c1)CN(C(=O)c1nnn(-c3ccccc3)n1)[C@H]2C (single isomer, unassigned) [Compound P-37], the inhibition of growth at 20 ppm (Monographella nivalis) was at least 80%, the inhibition of growth at 20 ppm [1] was at least 80% and the “control of Puccinia recondita f. sp. tritici compared to untreated control” value [3] was “at least 80%”. The “control of Pyrenophora teres compared to untreated control” value (Pyrenophora teres) was “at least 80%”, the inhibition of growth at 20 ppm (Botryotinia fuckeliana) was at least 80% and the inhibition of growth at 20 ppm (Mycosphaerella arachidis) was at least 80%. The “control of Blumeria graminis f. sp. tritici compared to untreated control” value [2] was “at least 80%” and the “control of Phaeosphaeria nodorum compared to untreated control” value (Phaeosphaeria nodorum) was “at least 80%”.

In the case of Cc1c([C@H]2CN(C(=O)c3cn(-c4ncc(F)cc4F)nn3)[C@@H](C)c3ccccc32)cnn1C [Compound P-43, [1-(3,5-difluoro-2-pyridyl)triazol-4-yl]-[(1S,4S)-4-(1,5-dimethylpyrazol-4-yl)-1-methyl-3,4-dihydro-1H-isoquinolin-2-yl]methanone], the inhibition of growth at 20 ppm (Monographella nivalis) is reported as at least 80%, the “control of Alternaria solani compared to untreated control” value (Alternaria solani) is reported as “at least 80%” and the inhibition of growth at 20 ppm [1] is reported as at least 80%. The inhibition of growth at 20 ppm (Glomerella lagenarium) was at least 80%, the “control of Pyrenophora teres compared to untreated control” value (Pyrenophora teres) was “at least 80%” and the inhibition of growth at 20 ppm (Botryotinia fuckeliana) was at least 80%. The inhibition of growth at 20 ppm (Mycosphaerella arachidis) was at least 80%, the “control of Blumeria graminis f. sp. tritici compared to untreated control” value [2] was “at least 80%” and the “control of Phaeosphaeria nodorum compared to untreated control” value (Phaeosphaeria nodorum) was “at least 80%”. The inhibition of growth at 20 ppm (Fusarium culmorum) was at least 80%.

C[C@H]1c2ccccc2[C@@H](c2cnn(C)c2Cl)CN1C(=O)c1cn(-c2ccc(F)cc2F)nn1 [Compound P-48, [(1S,4S)-4-(5-chloro-1-methyl-pyrazol-4-yl)-1-methyl-3,4-dihydro-1H-isoquinolin-2-yl]-[1-(2,4-difluorophenyl)triazol-4-yl]methanone] was tested, and the inhibition of growth at 20 ppm (Monographella nivalis) was at least 80%, the “control of Alternaria solani compared to untreated control” value (Alternaria solani) was “at least 80%” and the inhibition of growth at 20 ppm (Sclerotinia sclerotiorum) was at least 80%. The inhibition of growth at 20 ppm [1] was at least 80%, the inhibition of growth at 20 ppm (Glomerella lagenarium) was at least 80% and the “control of Pyrenophora teres compared to untreated control” value (Pyrenophora teres) was “at least 80%”. The inhibition of growth at 20 ppm (Botryotinia fuckeliana) was at least 80%, the inhibition of growth at 20 ppm (Mycosphaerella arachidis) was at least 80% and the “control of Blumeria graminis f. sp. tritici compared to untreated control” value [2] was “at least 80%”. For the same compound, the “control of Phaeosphaeria nodorum compared to untreated control” value (Phaeosphaeria nodorum) was “at least 80%” and the inhibition of growth at 20 ppm (Fusarium culmorum) was at least 80%.

For C[C@H]1c2ccccc2[C@@H](c2cnn(C)c2Cl)CN1C(=O)c1nnn(-c2ccc(F)cc2F)n1 [Compound P-49, [(1S,4S)-4-(5-chloro-1-methyl-pyrazol-4-yl)-1-methyl-3,4-dihydro-1H-isoquinolin-2-yl]-[2-(2,4-difluorophenyl)tetrazol-5-yl]methanone], the inhibition of growth at 20 ppm (Monographella nivalis) was at least 80%, the “control of Alternaria solani compared to untreated control” value (Alternaria solani) was “at least 80%” and the inhibition of growth at 20 ppm [1] was at least 80%. The “control of Puccinia recondita f. sp. tritici compared to untreated control” value [3] was “at least 80%”, the inhibition of growth at 20 ppm (Glomerella lagenarium) was at least 80% and the “control of Pyrenophora teres compared to untreated control” value (Pyrenophora teres) was “at least 80%”. The inhibition of growth at 20 ppm (Botryotinia fuckeliana) was at least 80%, the inhibition of growth at 20 ppm (Mycosphaerella arachidis) was at least 80% and the “control of Blumeria graminis f. sp. tritici compared to untreated control” value [2] was “at least 80%”. The “control of Phaeosphaeria nodorum compared to untreated control” value (Phaeosphaeria nodorum) was “at least 80%”.

With C[C@H]1c2ccccc2[C@@H](c2cnn(C)c2)CN1C(=O)c1cn(-c2ncc(F)cc2F)nn1 [Compound P-51, [1-(3,5-difluoro-2-pyridyl)triazol-4-yl]-[(1S,4S)-1-methyl-4-(1-methylpyrazol-4-yl)-3,4-dihydro-1H-isoquinolin-2-yl]methanone] the inhibition of growth at 20 ppm (Monographella nivalis) was at least 80%, the “control of Alternaria solani compared to untreated control” value (Alternaria solani) was “at least 80%” and the inhibition of growth at 20 ppm [1] was at least 80%. The inhibition of growth at 20 ppm (Glomerella lagenarium) was at least 80%, the “control of Pyrenophora teres compared to untreated control” value (Pyrenophora teres) was “at least 80%” and the inhibition of growth at 20 ppm (Botryotinia fuckeliana) was at least 80%. For the same compound, the inhibition of growth at 20 ppm (Mycosphaerella arachidis) was at least 80%, the “control of Blumeria graminis f. sp. tritici compared to untreated control” value [2] was “at least 80%” and the “control of Phaeosphaeria nodorum compared to untreated control” value (Phaeosphaeria nodorum) was “at least 80%”.

With Cc1c(C2CN(C(=O)c3cn(-c4ccc(F)cc4F)nn3)Cc3ccccc32)cnn1C (stereo not shown) [Compound P-56, [1-(2,4-difluorophenyl)triazol-4-yl]-[4-(1,5-dimethylpyrazol-4-yl)-3,4-dihydro-1H-isoquinolin-2-yl]methanone] the inhibition of growth at 20 ppm (Monographella nivalis) was at least 80%, the “control of Alternaria solani compared to untreated control” value (Alternaria solani) was “at least 80%” and the inhibition of growth at 20 ppm [1] was at least 80%. For the same compound, the inhibition of growth at 20 ppm (Glomerella lagenarium) was at least 80%, the “control of Pyrenophora teres compared to untreated control” value (Pyrenophora teres) was “at least 80%” and the inhibition of growth at 20 ppm (Botryotinia fuckeliana) was at least 80%. The inhibition of growth at 20 ppm (Mycosphaerella arachidis) was at least 80%, the “control of Blumeria graminis f. sp. tritici compared to untreated control” value [2] was “at least 80%” and the “control of Phaeosphaeria nodorum compared to untreated control” value (Phaeosphaeria nodorum) was “at least 80%”.
